{"source": "patent US9358276B2", "about": "“Methods of diagnosing and treating small intestinal bacterial overgrowth (SIBO) and SIBO-related conditions” (Cedars-Sinai Medical Center, priority 1999, dated 2016)", "key": {"SIBO [1]": {"tested_on": "SIBO", "experiment": "Neomycin treatment of subjects with IBS and SIBO (LBHT, VAS)", "type": "in vivo, human", "protocol": "Subjects were tested after an overnight fast. At time zero, each subject swallowed 15 ml of Chronulac formula, delivering 10 g of lactulose; every 5-20 min thereafter, for 2-4 hours, a 50 cm^3 end-expiratory breath sample was taken with an airtight sampling bag. Each breath sample was then analyzed for hydrogen content with a gas chromatograph (Quintron Model DP, Quintron Instrument Co., Division of E.F. Brewer Co, Menomonee Falls, Wis. 53051), standardized using a QuinGas standard as instructed by the manufacturer. Hydrogen peaks were plotted before and after an antimicrobial treatment regimen for comparison. The normal range for the second hydrogen peak was 0 to 20 ppm.\nThe two hundred-two (202) human subjects were assessed for SIBO with LBHT. Of the 202 subjects in the database, 95 claimed to have been given a diagnosis of IBS. […] After these 22 subjects were excluded, 73 subjects remained.\nOf the 124, 92 (74%) were positive for SIBO. […] Therefore, the incidence of SIBO among the 110 untreated subjects was 92 (84%), showing a strong association between a suspected diagnosis of IBS and the presence of SIBO. After neomycin treatment (500 mg twice daily for ten days), 23 of these 92 returned for follow-up testing. On a visual analog scores (VAS), subjects were asked to rate their degree of post-treatment improvement. These 23 subjects reported a 60±31% improvement, although 17 had only partial eradication of SIBO, based on their LBHT results. (FIG. 1).\nThere was a likely selection bias in the database due to the fact that subjects were referred for LBHT, because their physicians suspected they had SIBO. To correct for this bias, a pilot study was also conducted looking at the incidence of bacterial overgrowth in patients with IBS. […] Eight human subjects with a suspected diagnosis of IBS, based on the Rome criteria, were tested for SIBO, using LBHT as described in Example 2. […] Six of the 7 subjects testing positive for SIBO returned approximately 10 days after completion of a 10 day course of neomycin as described above. […] The six subjects reported an average improvement in their IBS symptoms of 65±28% (Range: 20-100%) on VAS scoring."}, "SIBO [2]": {"tested_on": "SIBO", "experiment": "Comparison of antibiotic regimes for eradicating SIBO, follow-up lactulose breath hydrogen test (LBHT)", "type": "in vivo, human", "protocol": "Subjects were tested after an overnight fast. […] Each breath sample was then analyzed for hydrogen content with a gas chromatograph (Quintron Model DP, Quintron Instrument Co., Division of E.F. Brewer Co, Menomonee Falls, Wis. 53051), standardized using a QuinGas standard as instructed by the manufacturer. Hydrogen peaks were plotted before and after an antimicrobial treatment regimen for comparison. The normal range for the second hydrogen peak was 0 to 20 ppm. Subjects referred to the Cedars-Sinai GI Motility Program for a lactulose breath hydrogen test (LBHT) to assess SIBO were entered into a database. Those that tested positive for SIBO were given antibiotic treatment by their referring physician and in some cases, returned for a follow-up LBHT to assess eradication of SIBO. During the follow-up LBHT, subjects were asked which antibiotic they were given to treat their SIBO. The eradication rate of each antibiotic was evaluated. Of the 771 subjects in the database, 561 (73%) tested positive for SIBO. […] (See Table 1 below). […] None of the commonly used antibiotics was universally successful in eradicating overgrowth."}, "intestinal transit": {"tested_on": "intestinal transit", "experiment": "Intestinal transit in multi-fistulated dogs, cumulative % recovery of 99mTc-DTPA", "type": "in vivo, dog", "summary_of_the_method": "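Fistulated mongrel dogs (~25 kg) had the ~150 cm segment between duodenal and mid-gut fistulas isolated by occluding catheters and perfused at 2 mL/min with buffer plus test agent (some given i.v.). About 20 μCi 99mTc-DTPA was given as a bolus at 60 min of a 90-min perfusion. Mid-gut output was collected every 5 min for 30 min, gamma-counted, and reported as cumulative % recovery.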"}}}
{"compound": "neomycin", "values": [{"measurement": "degree of post-treatment improvement (VAS)", "setting": "SIBO [1]; 23 IBS subjects with SIBO, 500 mg twice daily for ten days", "value": "60±31", "unit": "%"}, {"measurement": "subjects with only partial eradication of SIBO (LBHT)", "setting": "SIBO [1]; of the 23 returning subjects", "value": 17}, {"measurement": "average improvement in IBS symptoms on VAS scoring", "setting": "SIBO [1]; pilot study, six subjects", "value": "65±28", "unit": "%"}, {"measurement": "post-treatment breath hydrogen peaks", "setting": "SIBO [1]; pilot study, six subjects", "value": "0-20 ppm"}, {"measurement": "range of improvement in IBS symptoms on VAS scoring", "setting": "SIBO [1]; pilot study, six subjects", "value": "20-100%"}, {"measurement": "eradication of SIBO (LBHT)", "setting": "SIBO [1]; pilot study, six subjects, 10 day course", "value": "completely eradicated"}, {"measurement": "success in eradicating SIBO, comparison of antibiotics", "setting": "SIBO [2]; 105 subjects with follow-up LBHT", "value": "most successful"}, {"measurement": "% Patients with SIBO Eradicated", "setting": "SIBO [2]; follow-up LBHT", "value": 55, "unit": "%"}]}
{"compound": "CCCCCCCC/C=C\\CCCCCCCC(=O)[O-].[Na+]", "note": "[oleate, sodium oleate]", "values": [{"measurement": "proximal intestinal transit, cumulative % marker recovered", "setting": "intestinal transit; 60 mM oleate distal gut, Saline (i.v.), Buffer Control 70.11 ± 6.51, five dogs", "value": "26.62 ± 5.36", "unit": "%"}, {"measurement": "marker recovery", "setting": "intestinal transit; 60 mM oleate in proximal gut + normal saline (jejunal brake), n=3", "value": "41.6±4.6", "unit": "%"}, {"measurement": "marker recovery", "setting": "intestinal transit; 60 mM oleate in proximal gut with 0 mg naloxone, n=7", "value": "30.0±3.6", "unit": "%"}, {"measurement": "marker recovery", "setting": "intestinal transit; 60 mM oleate into distal gut, Buffer Control 79.7±5.8%, n=2 dogs", "value": "25.8±5.2", "unit": "%"}, {"measurement": "marker recovery", "setting": "intestinal transit; 60 mM oleate to distal gut (ileal brake), Buffer Control 81.2%", "value": 24.1, "unit": "%"}, {"measurement": "marker recovery", "setting": "intestinal transit; ileal brake (oleate in distal gut, buffer in proximal gut), control 76.3±3.1%, four dogs", "value": "22.9±3.8", "unit": "%"}, {"measurement": "marker recovery", "setting": "intestinal transit; ileal brake, 60 mM oleate into distal gut, n=2", "value": "20±1.8", "unit": "%"}, {"measurement": "marker recovery", "setting": "intestinal transit; ileal brake, 60 mM oleate to distal gut, no naloxone, n=11", "value": "34.6±4.8", "unit": "%"}]}
